In general, melting point refers to the temperature of the solid-liquid transition.

For the compound `Nc1ncc(-c2nc(N3CCOCC3)c3sc(NS(=O)(=O)c4cccc(C=CC(=O)NO)c4)cc3n2)cn1`, the melting point is greater than 300 °C.
As to `CC(C)C(C(=O)O)N(Cl)Cl` (stereo not given), the melting point lay within 44 to 46 °C.
The result for `CCOC(=O)Cn1cnc(-c2cc(OC)c(OC)c(OC)c2)c1-c1ccc(C(F)(F)F)cc1` reads 129 to 134 °C; that for `O=C(NCc1ccccc1)c1cccc(-c2nc(=O)c3ccccc3s2)n1`, 197 to 198 °C; that for `CC1(C2=C(O)C(=O)c3ccccc3C2=O)CCCC1`, 116 to 118 °C.
In turn, `O=C(O)CC1CCCc2c(n(Cc3ccc(-n4ccnc4)cc3)c3ccc(F)cc23)C1` (stereo not given) displayed a melting point of 237 °C.
On to `CS(=O)(=O)N(Cc1cccnc1)c1ccccc1OCC(F)(F)F`, for which the melting point was in the range of 80 to 84 °C.
The result for `CC1=Nc2c3cc(-c4ccccc4)nc-3ccn2C1` reads 222 °C; that for `COc1ccc(C=CC(=O)c2ccc(O)c(CC(=O)O)c2)cc1OC`, 225 °C.
Under `O=C(C1CCCCC1)N1c2ccc(F)cc2CCC1CN1CCN(c2ccccc2OCC(F)(F)F)CC1` (stereo not given) stands 51 °C; under `CCN(CC)CCOC(=N)N1CCC(c2nsc3ccccc23)CC1`, 84 to 86 °C.
Compound `O=Cc1ccc2cc(OCc3ccccc3)ccc2c1` had a melting point of 107 to 108 °C.
The compound `CCOc1ccccc1-c1oc2c(C(=O)OCCO)cccc2c(=O)c1C` returned a melting point of 143 to 144 °C.
`CCCCCCCCCCCCCc1c(C(F)(F)F)noc1NS(=O)(=O)c1ccccc1` came in with a melting point of 89 °C.
Turning to `O=C1OCc2c1cc1ccc3c(c1c2-c1ccc(OC(F)(F)F)cc1)OCO3`, the melting point fell in the range of 222 to 225 °C.
In turn, `O=C(O)C(O)=Cc1ccc([N+](=O)[O-])s1` came in with a melting point of 192 to 193 °C.
Consider `O=[N+]([O-])c1ccnc(-c2cc(C(F)(F)F)ccc2F)c1`, for which the melting point is 58.1 °C.
Under `O=C1c2ccccc2C(=O)c2c(NC(=O)[C@@H]3C[C@H]3c3ccccc3)ccc(NC(=O)[C@@H]3C[C@H]3c3ccccc3)c21` (relative stereo) stands 272 to 274 °C; under `O=C(Nc1ccccc1Cl)c1ccccc1SSc1ccccc1C(=O)Nc1ccccc1Cl`, 247 to 249 °C; under `N#Cc1[nH]c([N+](=O)[O-])c(Br)c1Br`, 181 to 186 °C.
As to `CC(=O)c1ccc2nc(NC(=O)c3ccc(C(C)(C)C)cc3)cn2n1`, the melting point was in the range of 237 to 238 °C.
`COc1cc2c(cc1OC)CC(Nc1ccc(O)cc1)CC2` (stereo not given) returned a melting point of 150 to 152 °C.
The result for `CC(C)n1nc2cccc([N+](=O)[O-])c2n1` reads 65 to 67 °C; that for `NS(=O)(=O)c1cc(CCNC(=O)c2cnc3ccccc3c2)ccc1OCCOCC(F)(F)F`, 206 to 210 °C; that for `C=CCCN1C(C)=C(C(=O)OC)C(c2ccccc2)C(C(=O)OC)=C1C`, 108 to 110 °C.
In the case of `O=C(c1ccccc1)N1CCC(Nc2ccccc2Oc2ccc(Cl)cc2Cl)CC1`, the melting point is 55 to 58 °C.
Under `CNC(=O)c1ccc(-c2ccc(NC(=O)NCc3cccnc3)cc2)nc1N` stands 234 to 236 °C.
Compound `CCOC(=O)C(=Cc1ccc(O)cc1)C(=O)CCl` had a melting point of 92 to 95 °C.
Under `C#CCNC1(c2ccccc2)c2ccccc2Oc2ccccc21` stands 116 to 118 °C; under `c1ccc(-c2nn3ccccc3c2-c2ccncc2)cc1`, 166 to 167 °C; under `COc1ccc(C(C)(C)C)cc1C(N)=NO`, 132 to 133 °C.
The result for `c1ccc(CN(Cc2ccccc2)c2cccc3c2ncc2nc4n(c23)CCC4)cc1` reads 275 to 277 °C.
The result for `Cc1c(Cl)nnc(Cl)c1Cl` reads 67.5 to 70 °C.
For the compound `N#CCCNC(=O)c1cccc(-c2cccc3nn(Cc4ccc(F)c(Cl)c4)cc23)c1`, the melting point was 165 to 166 °C.
With `O=C1CCC(c2ccccc2)(c2ccccc2)C2CN(C(Cc3ccccc3)=NCc3cccc(F)c3)CC12` (stereo not given), the melting point stood at 156 °C.
Take `CN(C)S(=O)(=O)Oc1c(I)cc(C(C)(C)C)cc1CN`: the melting point fell in the range of 94 to 95 °C.
In turn, `Cc1ccc(Sc2c(N)cc(C(=O)O)cc2S)cc1` had a melting point of 178 to 182 °C.
Turning to `Cn1nnc(NC(=O)C2c3ccccc3Oc3ccccc32)n1`, the melting point amounted to 247 °C.
The result for `CCOC(=O)C(F)(F)C(I)c1ccc(OC)cc1` (stereo not given) reads 44 to 45 °C; that for `Cc1nnc2c(C(C)Oc3ccc(Cl)cc3)ccnn12` (stereo not given), 158 to 160 °C; that for `CCN1C(=O)C(C)(C)C(=O)N(C)c2cc(OCCCN3C(=O)C(c4ccccc4)Cc4ccccc43)ccc21` (stereo not given), 100 to 105 °C.
`Fc1ccc(-c2[nH]cc(CCCN3CCCCC3)c2-c2ccncc2)cc1` gave a melting point of 195 to 197 °C.
`Cc1cc(N2CCC(CN3CCN(S(=O)(=O)c4ccc(Br)cc4)CC3)CC2)nc(C)n1` registered a melting point of 73 to 74 °C.
The result for `CC(CCCl)=C1SC(=S)N(CC(=O)O)C1=O` reads 205 to 207 °C; that for `Cc1cc(O)c2cccc(OCc3ccccc3)c2n1`, 155 to 164 °C.
With `CC(C)COc1c(-c2ccc(S(C)(=O)=O)cc2)cnn(-c2ccc(F)cc2)c1=O`, the melting point lay within 121 to 128 °C.
`Cc1ccc2ccc(C(=O)O)nc2c1`: the melting point lay in the range of 160 to 162 °C.
The result for `CC(C)n1nc(-c2c(-c3ccccc3)nc(N)nc2N2CCNCC2)ccc1=O` reads 254 to 256 °C.
The result for `COc1cc2c(cc1Cl)C(C)(C)C(CC=O)C2=O` (racemic) reads 102 to 103 °C.
The result for `CCOC(=O)CC1CCC(CCNS(=O)(=O)c2ccc(Br)cc2)CC1` (stereo not given) reads 62 °C; that for `O=C(Cc1ccc(O)c2[nH]ncc12)NCc1ccccc1`, 188 to 190 °C; that for `O=c1ccc(-c2ccc(OC3CCN(C4CCCC4)CC3)cc2)n[nH]1`, 211 to 213 °C.
On to `CC(=O)NC1Cc2ccc(CCN3CCN(c4nsc5ccccc45)CC3)cc2C1(C)C` (stereo not given), for which the melting point is 62 to 72 °C.
The result for `CCOC(=O)CN1CC2CCC(=O)N2C1=O` (stereo not given) reads 99 to 101 °C.
Under `O=C1NC2(CCc3ccccc32)c2ccccc21` (stereo not given) stands 205 to 206 °C; under `COC(=O)COc1ccc(-c2ccc(C(=O)OCc3ccccc3)cc2)cc1-c1ccc2c(c1)C(C)(C)CCC2(C)C`, 104 to 106 °C; under `CS(=O)(=O)N1Cc2cccc(-c3ccc4cnc(Nc5ccc(C6CCN(CC(N)=O)CC6)cc5)nn34)c2C1`, 244 to 247 °C.
Under `COc1nc(C)nc(NC(=O)NS(=O)(=O)c2ccccc2CCC(F)(F)F)n1` stands 157 to 158 °C.
In the case of `N#Cc1cccc2c1CN(C1CCC(=O)NC1=O)C2=O` (stereo not given), the melting point lay within 312 to 314 °C.
`CCCc1c(OCC(O)CSc2nnc(SCC(=O)O)s2)ccc(C(C)=O)c1O` (stereo not given) registered a melting point of 72 to 75 °C.
For the compound `[N-]=[N+]=NCC1CN(c2cc(F)c(-c3cccnc3)c(F)c2)C(=O)O1` (stereo not given), the melting point is 97 to 98 °C.
The result for `CC(Oc1cnn(-c2ccc(Cl)cc2)c(=O)c1Cl)c1ccc(Cl)cc1` (stereo not given) reads 135 to 138 °C; that for `Cc1cc(C(=O)Nc2ccccc2C)n(C)n1`, 158 to 160 °C; that for `CCOc1cc2c(cc1O)C(C(Cl)(Cl)Cl)OC2=O` (stereo not given), 143 to 144 °C.
Under `CCCn1c(COCC)nc2c(N)nc3cc(OC4CCN(C(=O)NC(C)C)CC4)ccc3c21` stands 163 to 164 °C; under `COc1cc(Nc2c(C#N)cnc3sccc23)c(Cl)cc1Cl`, 197 to 199 °C.
Under `O=C(Nc1ccc(Cl)c(Cl)c1)NS(=O)(=O)c1ccccc1` stands 194 to 195 °C; under `CCCCCCCCCCCCOc1ccc(C(=O)c2ccc(Cl)cc2)c(O)c1`, 61 to 63 °C; under `Cc1ccc(C(=O)O)c(F)c1C1=NC(C)(C(C)C)C(=O)N1` (stereo not given), 164 to 170 °C.
In turn, `CC(NC(=O)CCBr)c1ccccc1` (stereo not given) showed a melting point of 69 to 70 °C.
Take `CCCCN1CCC(C(=O)O)(S(=O)(=O)c2ccc(OC)cc2)CC1`: the melting point worked out at 206 °C.
In turn, `Cc1ccc2c3c(ccc2n1)OCC(CN1CC=C(c2cc4ccccc4s2)CC1)O3` (stereo not given) had a melting point of 174 to 176 °C.
For the compound `Fc1ccc(-n2ccc3cc(OCCCCCCCBr)ccc32)cc1`, the melting point lay in the range of 63 to 65 °C.
`CCN1CCN(c2nc(-c3ccc(OCCO)cc3)cc3ccsc23)CC1` registered a melting point of 135 to 136 °C.
For the compound `COc1cccc(C(O)CN(C)Cc2sc3c(=O)c(C(=O)NCc4ccc(Cl)cc4)cn(C)c3c2COCC[Si](C)(C)C)c1` (stereo not given), the melting point was 150 to 152 °C.
The result for `CCCC[C@@H](C)[C@@H](O)[C@H](NC)C(=O)O` reads 248 to 249 °C.
Regarding `COc1cc(NC(=S)Nc2ccccc2)ccn1`, the melting point was in the range of 138 to 141 °C.
`CCOC(=O)c1[nH]c(C)c(C)c1CC` displayed a melting point of 95 to 97 °C.
The result for `COC(=O)C(=NO)c1ccccc1COc1ccccc1C` reads 115 °C.
Under `CCCCC(C)c1cc(O)c2c(c1)OC(C)(C)CC2C1=CCN(CCc2ccccc2)CC1` (stereo not given) stands 141 to 143 °C.
For `OCc1conc1-c1ccc(-c2ccccc2)cc1`, the melting point lay within 138 to 139 °C.
Turning to `CCCCCCCCCCCCCCCCNc1c(Cl)cc(C(=O)O)cc1Cl`, the melting point lay within 92 to 94 °C.
Under `CC(C)OC(=O)Nc1ccc2nc(-c3ccccc3)oc2n1` stands 210 to 211 °C; under `O=C(N1c2ccccc2C=Cc2ccccc21)C(F)(F)F`, 85 to 91 °C; under `CN1Cc2c(-c3nc(C4CC4)no3)ncn2-c2ccc(F)cc2C1=O`, 216 to 217 °C.
Compound `CCOC(=O)C1=C(N)NC(N)=C(C(=O)OCC)C1c1c(OC)ncnc1OC` yielded a melting point of 219 °C.
In turn, `CCOc1c(OC)c(OC)cc(C(=O)OC)c1-c1c(C(=O)OC)cc(OC)c2c1OCO2` gave a melting point of 93 to 94 °C.
With `COC(=O)NNC(=O)CCCl`, the melting point is 129 °C.
The result for `Cc1sc(-c2ccccc2)nc1COc1ccc(CCl)cn1` reads 78 to 79 °C; that for `CNC(=O)c1cc(Br)cc(C)c1N`, 133 to 135 °C.

(Values after a melting point compilation (Tetko et al.; mined from patent text by program, amines drawn as free bases though some values may be those of a salt).)
